In general, IC50 refers to the midpoint of a concentration-inhibition curve.

Assay [1] has as its target T1, hNav1.7 (Homo sapiens (Human), UniProt Q15858). The assay can be described thus: Tritiated compound binding to membranes from cells heterologously expressing hNav1.7 and the β1 subunit (Nav1.7 LBA). The settings on record: competitive binding vs [3H]compound, membranes with hNav1.7 and β1 subunit; read-out: Nav1.7 LBA EVO IC50. The method, boiled down: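 Membranes from cells expressing hNav1.7 with β1 were incubated at room temperature with a tritiated competitive Nav1.7 inhibitor plus test compound in 100 mM NaCl, 20 mM Tris pH 7.4, 0.01% BSA; nonspecific binding was set with 1 μM unlabeled compound. Incubation was 18 h with […] radioligand, or 3 h with […]. Bound ligand was filtered and counted, and IC50 came from a 4-parameter fit.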
Target sequence in this assay (Q15858 whole entry, looked up): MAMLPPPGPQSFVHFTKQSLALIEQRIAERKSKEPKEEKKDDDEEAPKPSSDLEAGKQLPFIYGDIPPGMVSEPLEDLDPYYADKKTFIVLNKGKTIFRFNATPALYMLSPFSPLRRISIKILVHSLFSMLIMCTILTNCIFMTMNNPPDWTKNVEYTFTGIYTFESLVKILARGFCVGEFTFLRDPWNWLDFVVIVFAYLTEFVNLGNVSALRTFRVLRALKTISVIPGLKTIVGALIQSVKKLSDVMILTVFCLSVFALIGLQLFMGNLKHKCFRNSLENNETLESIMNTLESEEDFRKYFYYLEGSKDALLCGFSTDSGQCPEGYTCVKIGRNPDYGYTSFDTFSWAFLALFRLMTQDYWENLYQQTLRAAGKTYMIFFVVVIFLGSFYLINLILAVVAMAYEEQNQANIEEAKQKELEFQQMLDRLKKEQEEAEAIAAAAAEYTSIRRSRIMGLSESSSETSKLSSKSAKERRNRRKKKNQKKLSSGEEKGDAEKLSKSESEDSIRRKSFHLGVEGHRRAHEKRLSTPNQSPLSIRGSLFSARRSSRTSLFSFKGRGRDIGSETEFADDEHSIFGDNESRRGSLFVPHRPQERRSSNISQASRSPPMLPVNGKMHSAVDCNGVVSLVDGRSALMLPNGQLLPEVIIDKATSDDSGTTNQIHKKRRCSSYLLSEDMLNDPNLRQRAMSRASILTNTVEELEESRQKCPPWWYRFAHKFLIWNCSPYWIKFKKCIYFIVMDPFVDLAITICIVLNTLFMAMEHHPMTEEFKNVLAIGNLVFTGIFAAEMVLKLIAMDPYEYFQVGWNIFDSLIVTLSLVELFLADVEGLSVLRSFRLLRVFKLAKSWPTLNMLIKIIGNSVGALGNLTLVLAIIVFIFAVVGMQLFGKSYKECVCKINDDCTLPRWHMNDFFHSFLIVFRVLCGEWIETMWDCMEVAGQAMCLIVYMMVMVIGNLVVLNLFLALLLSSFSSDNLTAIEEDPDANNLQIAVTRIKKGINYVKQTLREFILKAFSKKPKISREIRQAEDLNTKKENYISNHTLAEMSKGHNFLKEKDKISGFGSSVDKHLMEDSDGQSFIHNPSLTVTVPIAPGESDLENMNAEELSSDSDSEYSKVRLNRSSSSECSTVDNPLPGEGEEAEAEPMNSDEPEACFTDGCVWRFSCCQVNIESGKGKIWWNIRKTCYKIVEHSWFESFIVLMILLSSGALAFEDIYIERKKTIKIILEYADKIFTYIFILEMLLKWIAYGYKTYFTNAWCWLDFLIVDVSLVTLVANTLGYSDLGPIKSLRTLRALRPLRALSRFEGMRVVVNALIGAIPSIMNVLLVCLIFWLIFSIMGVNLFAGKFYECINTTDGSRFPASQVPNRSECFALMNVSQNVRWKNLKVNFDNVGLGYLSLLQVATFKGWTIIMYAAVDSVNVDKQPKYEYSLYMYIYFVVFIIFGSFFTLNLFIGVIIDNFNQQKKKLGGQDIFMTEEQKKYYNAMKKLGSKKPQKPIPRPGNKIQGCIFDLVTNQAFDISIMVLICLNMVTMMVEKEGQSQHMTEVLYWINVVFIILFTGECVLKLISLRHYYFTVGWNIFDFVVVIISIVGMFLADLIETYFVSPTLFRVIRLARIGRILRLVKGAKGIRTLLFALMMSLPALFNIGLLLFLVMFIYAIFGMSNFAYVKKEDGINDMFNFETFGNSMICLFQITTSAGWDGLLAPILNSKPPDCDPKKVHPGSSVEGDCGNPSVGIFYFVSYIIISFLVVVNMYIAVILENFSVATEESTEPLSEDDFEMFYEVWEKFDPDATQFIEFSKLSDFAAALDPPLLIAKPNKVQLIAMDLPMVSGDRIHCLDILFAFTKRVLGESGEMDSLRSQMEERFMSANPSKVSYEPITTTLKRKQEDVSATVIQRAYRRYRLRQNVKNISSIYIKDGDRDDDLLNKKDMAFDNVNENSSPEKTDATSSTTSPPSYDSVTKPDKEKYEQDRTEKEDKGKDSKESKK
Target sequence in this assay (Q07699 whole entry partner, looked up): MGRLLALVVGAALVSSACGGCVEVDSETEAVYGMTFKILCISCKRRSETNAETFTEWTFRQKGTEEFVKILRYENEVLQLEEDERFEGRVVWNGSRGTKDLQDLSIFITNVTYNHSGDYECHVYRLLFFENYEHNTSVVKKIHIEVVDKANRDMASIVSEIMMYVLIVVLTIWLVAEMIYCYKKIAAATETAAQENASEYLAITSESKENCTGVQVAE

The target of assay [2] is T1, hNav1.7. The assay can be described thus: Electrophysiological assay (EP), voltage clamp on Syncropatch 384PE, CHO cells stably expressing Nav1.7. Type of assay: cell-based. The conditions noted are these: holding potential −50 mV, 7.5 min compound incubation, read-out: EP_SP hNav1.7 EVO IC50. The method, boiled down: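 Whole-cell automated patch clamp was run on CHO cells stably expressing human Nav1.7 cDNA, with internal solution CsCl/EGTA pH 7.2, external solution 80 mM NaCl pH 7.4, and 0.1% Pluronic F-127. From a −50 mV holding potential: −10 mV for 10 ms, −150 mV for 20 ms, then −10 mV for 10 ms, where current was measured. Inhibition was taken after 7.5 min compound incubation, with TTX added for full block.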
Target sequence in this assay (Q15858 other isoform, or with tags, fused parts or gaps): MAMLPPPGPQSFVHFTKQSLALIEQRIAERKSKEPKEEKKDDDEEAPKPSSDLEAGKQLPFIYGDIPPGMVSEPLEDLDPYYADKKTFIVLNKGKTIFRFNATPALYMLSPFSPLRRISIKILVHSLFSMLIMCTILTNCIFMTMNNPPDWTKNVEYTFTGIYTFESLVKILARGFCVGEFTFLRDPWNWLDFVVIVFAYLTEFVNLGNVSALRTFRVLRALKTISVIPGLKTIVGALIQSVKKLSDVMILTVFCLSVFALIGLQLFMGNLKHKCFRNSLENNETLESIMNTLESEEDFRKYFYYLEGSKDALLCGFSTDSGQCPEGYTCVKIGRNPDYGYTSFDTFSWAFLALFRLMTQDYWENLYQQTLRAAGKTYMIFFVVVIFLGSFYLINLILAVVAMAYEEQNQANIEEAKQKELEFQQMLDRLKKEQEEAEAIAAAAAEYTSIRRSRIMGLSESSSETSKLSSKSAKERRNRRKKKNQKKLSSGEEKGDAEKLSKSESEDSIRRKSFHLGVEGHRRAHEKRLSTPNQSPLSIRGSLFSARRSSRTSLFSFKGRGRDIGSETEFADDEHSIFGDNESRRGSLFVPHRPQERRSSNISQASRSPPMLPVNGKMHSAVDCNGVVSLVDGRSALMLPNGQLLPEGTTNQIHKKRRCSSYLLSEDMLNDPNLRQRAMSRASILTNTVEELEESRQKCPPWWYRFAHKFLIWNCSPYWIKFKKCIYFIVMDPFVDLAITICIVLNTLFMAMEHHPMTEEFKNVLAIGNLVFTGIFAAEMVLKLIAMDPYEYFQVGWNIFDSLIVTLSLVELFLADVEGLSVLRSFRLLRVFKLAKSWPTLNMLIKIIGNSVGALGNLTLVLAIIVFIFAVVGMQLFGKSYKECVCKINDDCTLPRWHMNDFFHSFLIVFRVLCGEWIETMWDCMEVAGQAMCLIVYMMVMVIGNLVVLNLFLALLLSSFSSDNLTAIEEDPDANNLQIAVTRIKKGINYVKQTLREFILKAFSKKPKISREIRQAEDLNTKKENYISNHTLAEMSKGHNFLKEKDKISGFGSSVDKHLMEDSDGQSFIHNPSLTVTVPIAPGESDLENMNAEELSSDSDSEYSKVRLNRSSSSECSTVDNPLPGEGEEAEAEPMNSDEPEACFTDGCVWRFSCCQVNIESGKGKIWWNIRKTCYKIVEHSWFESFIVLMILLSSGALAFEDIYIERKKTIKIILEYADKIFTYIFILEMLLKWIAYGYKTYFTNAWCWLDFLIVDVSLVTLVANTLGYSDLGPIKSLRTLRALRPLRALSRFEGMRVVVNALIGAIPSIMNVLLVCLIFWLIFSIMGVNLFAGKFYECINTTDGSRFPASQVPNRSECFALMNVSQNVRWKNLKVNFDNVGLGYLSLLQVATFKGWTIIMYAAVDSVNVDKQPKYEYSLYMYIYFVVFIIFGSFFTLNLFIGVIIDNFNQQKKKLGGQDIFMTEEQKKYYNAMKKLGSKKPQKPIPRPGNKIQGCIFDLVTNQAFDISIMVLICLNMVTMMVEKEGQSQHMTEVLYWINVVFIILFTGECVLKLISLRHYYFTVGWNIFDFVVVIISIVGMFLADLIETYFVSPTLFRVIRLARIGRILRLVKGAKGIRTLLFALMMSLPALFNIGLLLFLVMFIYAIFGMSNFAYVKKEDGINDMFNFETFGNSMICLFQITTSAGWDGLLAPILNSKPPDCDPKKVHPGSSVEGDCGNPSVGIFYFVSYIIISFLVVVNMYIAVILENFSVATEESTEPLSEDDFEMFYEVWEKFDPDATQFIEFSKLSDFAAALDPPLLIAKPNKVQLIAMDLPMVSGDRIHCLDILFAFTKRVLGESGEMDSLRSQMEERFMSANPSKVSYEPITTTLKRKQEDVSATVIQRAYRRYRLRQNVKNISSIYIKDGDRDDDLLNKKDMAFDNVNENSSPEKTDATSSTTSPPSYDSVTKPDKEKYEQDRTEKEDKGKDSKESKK
On the technique in general: In patch-clamp work, channel activity is measured electrically.

Structures can show the parent of a compound that is named as a salt. Bounds are passed on as bounds.

As to `CN1CC[C@@H](C(=O)N(C)[C@H]2C[C@@H](c3cccc(C(F)(F)F)c3)CC[C@@H]2Nc2cc(F)c(S(=O)(=O)Nc3ccncn3)cc2Cl)C1` [Example 34, (R)—N-((1S,2S,5S)-2-((2-Chloro-5-fluoro-4-(N-(pyrimidin-4-yl)sulfamoyl)phenyl)amino)-5-(3-(trifluoromethyl)phenyl)cyclohexyl)-N,1-dimethylpyrrolidine-3-carboxamide], the concentration for half-maximal inhibition (IC50) in assay [1] stood at 2.6 nM; in assay [2] it was 0.672 nM.

`CN(C)[C@H]1C[C@@H](c2cccc(C3COC3)c2)CC[C@@H]1Nc1cc(F)c(S(=O)(=O)Nc2ccncn2)cc1Cl` [Example 44, 5-chloro-4-(((1S,2S,4S)-2-(dimethylamino)-4-(3-(oxetan-3-yl)phenyl)cyclohexyl)amino)-2-fluoro-N-(pyrimidin-4-yl)benzenesulfonamide]: the IC50 in assay [1] was 45.8 nM; in assay [2] it was 9.11 nM.

Take `CN(C)[C@H]1C[C@@H](c2cc(Cl)ccc2Cl)CC[C@@H]1Oc1cc(F)c(S(=O)(=O)Nc2ccncn2)cc1Cl` [Example 65, 5-chloro-4-(((1S,2S,4S)-4-(2,5-dichlorophenyl)-2-(dimethylamino)cyclohexyl)oxy)-2-fluoro-N-(pyrimidin-4-yl)benzenesulfonamide formate]: the 50% inhibitory concentration (IC50) in assay [1] stood at 5.41 nM; in assay [2], 1.03 nM.

With `CN(C)[C@H]1C[C@@H](c2cccc(C(F)(F)F)c2F)CC[C@@H]1Nc1cc(F)c(S(=O)(=O)Nc2ccncn2)cc1Cl` [Example 16, 5-chloro-4-(((1S,2S,4S)-2-(dimethylamino)-4-(2-fluoro-3-(trifluoromethyl)phenyl)-cyclohexyl)-amino)-2-fluoro-N-(pyrimidin-4-yl)benzenesulfonamide], the IC50 worked out at 1.2 nM in assay [1] and 0.923 nM in assay [2].

Turning to `CN(C)[C@@H]1C[C@@](O)(c2cccc(C(F)(F)F)c2)CC[C@H]1Nc1cc(F)c(S(=O)(=O)Nc2ccncn2)cc1Cl` (single isomer, unassigned) [Example 38, formate], the IC50 in assay [1] is not below 2000 nM; in assay [2], 9440 nM.

In the case of `CN1CC(C(=O)N(C)[C@H]2C[C@@H](c3cccc(C(F)(F)F)c3)CC[C@@H]2Nc2cc(F)c(S(=O)(=O)Nc3ccncn3)cc2Cl)C1` [Example 39, N-((1S,2S,5S)-2-((2-Chloro-5-fluoro-4-(N-(pyrimidin-4-yl)sulfamoyl)phenyl)amino)-5-(3-(trifluoromethyl)phenyl)cyclohexyl)-N,1-dimethylazetidine-3-carboxamide], the IC50 in assay [1] worked out at 2.07 nM; in assay [2] it was 0.83 nM.

Regarding `O=S(=O)(Nc1ccncn1)c1cc(F)c(N[C@H]2CC[C@H](c3cccc(C(F)(F)F)c3F)C[C@@H]2N2CCCC2)cc1F` [Example 70, 2,5-difluoro-4-(((1S,2S,4S)-4-(2-fluoro-3-(trifluoromethyl)phenyl)-2-(pyrrolidin-1-yl)cyclohexyl)-amino)-N-(pyrimidin-4-yl)benzenesulfonamide hydrochloride], the IC50 in assay [1] was determined as 7.22 nM; in assay [2], 0.966 nM.

On to `O=S(=O)(Nc1ccncn1)c1cc(F)c(O[C@H]2CC[C@H](c3cccc(C(F)(F)F)c3)C[C@@H]2N2CCCC2)cc1F` [Example 58, 2,5-difluoro-N-(pyrimidin-4-yl)-4-(((1S,2S,4S)-2-(pyrrolidin-1-yl)-4-(3-(trifluoromethyl)-phenyl)cyclohexyl)oxy)benzenesulfonamide], for which the IC50 in assay [1] was found to be 22.7 nM; in assay [2], 2.73 nM.

As to `CN1CC(N(C)[C@H]2C[C@@H](c3cccc(C(F)(F)F)c3)CC[C@@H]2Nc2cc(F)c(S(=O)(=O)Nc3ccncn3)cc2Cl)C1` [Example 45, 5-chloro-2-fluoro-4-(((1S,2S,4S)-2-(methyl(1-methylazetidin-3-yl)amino)-4-(3-(trifluoromethyl)phenyl)cyclohexyl)amino)-N-(pyrimidin-4-yl)benzenesulfonamide], the values for the 50% inhibitory concentration (IC50) in assay [1] and in assay [2] were 0.399 nM and 0.241 nM, respectively.

On to `CN(C)CC(=O)N(C)[C@H]1C[C@@H](c2cccc(C(F)(F)F)c2)CC[C@@H]1Nc1cc(F)c(S(=O)(=O)Nc2ccncn2)cc1Cl` [Example 29, N-((1S,2S,5S)-2-((2-chloro-5-fluoro-4-(N-(pyrimidin-4-yl)sulfamoyl)phenyl)amino)-5-(3-(trifluoromethyl)phenyl)cyclohexyl)-2-(dimethylamino)-N-methylacetamide formate], for which the 50% inhibitory concentration (IC50) in assay [1] is 3.56 nM; in assay [2] it was 2.25 nM.

Regarding `O=S(=O)(Nc1ccncn1)c1cc(F)c(N[C@H]2CC[C@H](c3cccc(C(F)(F)F)c3)C[C@@H]2N2CCCCC2)cc1F` [Example 62, 2,5-difluoro-4-(((1S,2S,4S)-2-(piperidin-1-yl)-4-(3-(trifluoromethyl)phenyl)cyclohexyl)-amino)-N-(pyrimidin-4-yl)benzenesulfonamide formate], the IC50 in assay [1] amounted to 0.816 nM; in assay [2], 0.628 nM.

`CC(C)[C@H](N)C(=O)N[C@H]1C[C@@H](c2cccc(C(F)(F)F)c2)CC[C@@H]1Nc1cc(F)c(S(=O)(=O)Nc2ccncn2)cc1Cl` [Example 30, (S)-2-Amino-N-((1S,2S,5S)-2-((2-chloro-5-fluoro-4-(N-(pyrimidin-4-yl)sulfamoyl)-phenyl)amino)-5-(3-(trifluoromethyl)phenyl)cyclohexyl)-3-methylbutanamide formate]: the results for the IC50 in assay [1] and in assay [2] were 37.5 nM and 28.4 nM, respectively.

Turning to `CN1CC(N(C)[C@H]2C[C@@H](c3cccc(C(F)(F)F)c3)CC[C@@H]2Oc2cc(F)c(S(=O)(=O)Nc3ccncn3)cc2Cl)C1` [Example 81, 5-chloro-2-fluoro-4-(((1S,2S,4S)-2-(methyl(1-methylazetidin-3-yl)amino)-4-(3-(trifluoromethyl)phenyl)cyclohexyl)oxy)-N-(pyrimidin-4-yl)benzenesulfonamide formate], the 50% inhibitory concentration (IC50) was found to be 0.661 nM in assay [1] and 0.334 nM in assay [2].

Take `CCN[C@H]1C[C@@H](c2cccc(C(F)(F)F)c2)CC[C@@H]1Oc1cc(F)c(S(=O)(=O)Nc2ccncn2)cc1Cl` [Example 68, 5-chloro-4-(((1S,2S,4S)-2-(ethylamino)-4-(3-(trifluoromethyl)phenyl)cyclohexyl)oxy)-2-fluoro-N-(pyrimidin-4-yl)benzenesulfonamide formate]: the half-inhibitory concentration (IC50) in assay [1] was 1.69 nM; in assay [2], 0.737 nM.

Take “5-Chloro-4-(((3 S,4S,6S)-7,7-dichloro-4-(dimethylamino)-6-(3-(trifluoromethyl)phenyl)-bicyclo[4.1.0]heptan-3-yl)amino)-2-fluoro-N-(pyrimidin-4-yl)benzenesulfonamide [Example 52]”: the IC50 came to 2000 nM in assay [1] and 496 nM in assay [2].

`CN(C1CCC1)[C@H]1C[C@@H](c2cccc(C(F)(F)F)c2)CC[C@@H]1Nc1cc(F)c(S(=O)(=O)Nc2ccncn2)cc1F` [Example 40, 4-(((1S,2S,4S)-2-(cyclobutyl(methyl)amino)-4-(3-(trifluoromethyl)phenyl)cyclohexyl)amino)-2,5-difluoro-N-(pyrimidin-4-yl)benzenesulfonamide formate]: the half-inhibitory concentration (IC50) was determined as 8.03 nM in assay [1] and 0.905 nM in assay [2].

As for `CN(C)[C@H]1C[C@@H](c2ccccc2C(F)(F)F)CC[C@@H]1Nc1cc(F)c(S(=O)(=O)Nc2ccncn2)cc1Cl` (single isomer, unassigned) [Example 77], the concentration for half-maximal inhibition (IC50) in assay [1] stood at 643 nM; in assay [2] it was 211 nM.

These data come from US11028075B2, “Therapeutic compounds and methods of use thereof” (GENENTECH, INC., priority 2018, dated 2021).
